{"source": "ChEMBL document CHEMBL4680251", "about": "“Discovery of a 2-pyridinyl urea-containing compound YD57 as a potent inhibitor of apoptosis signal-regulating kinase 1 (ASK1)” (Eur J Med Chem, 2020)", "key": {"CDK3/Cyclin E": {"biological_target": "CDK3/Cyclin E (Homo sapiens, UniProt Q00526)", "sequence (P24864 whole entry)": "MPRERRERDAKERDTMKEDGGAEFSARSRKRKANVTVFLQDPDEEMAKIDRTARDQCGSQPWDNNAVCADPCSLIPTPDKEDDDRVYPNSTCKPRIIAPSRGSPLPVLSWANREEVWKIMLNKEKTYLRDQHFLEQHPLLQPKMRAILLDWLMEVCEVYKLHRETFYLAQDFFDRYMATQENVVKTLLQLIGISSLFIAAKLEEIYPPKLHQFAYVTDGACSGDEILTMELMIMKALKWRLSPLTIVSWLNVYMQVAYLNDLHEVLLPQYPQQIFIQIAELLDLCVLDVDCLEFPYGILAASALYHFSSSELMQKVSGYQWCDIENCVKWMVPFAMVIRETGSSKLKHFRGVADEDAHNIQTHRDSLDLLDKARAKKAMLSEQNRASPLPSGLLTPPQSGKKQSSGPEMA", "sequence (Q00526 whole entry)": "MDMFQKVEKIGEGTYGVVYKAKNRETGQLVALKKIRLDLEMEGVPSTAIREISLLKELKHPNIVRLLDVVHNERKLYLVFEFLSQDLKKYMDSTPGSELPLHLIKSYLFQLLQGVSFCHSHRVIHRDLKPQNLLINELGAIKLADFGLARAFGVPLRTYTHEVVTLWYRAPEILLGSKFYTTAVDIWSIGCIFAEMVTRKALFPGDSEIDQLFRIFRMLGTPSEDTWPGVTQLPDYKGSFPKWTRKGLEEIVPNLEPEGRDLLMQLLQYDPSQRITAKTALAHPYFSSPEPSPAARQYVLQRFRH", "experiment": "Inhibition of full length human recombinant CDK3/Cyclin E using histone H1 as substrate incubated for 40 mins in presence of [gamma-33ATP] by radiometric scintillation counting analysis", "format": "protein-complex assay"}, "CDK2/Cyclin A2": {"biological_target": "CDK2/Cyclin A2 (Homo sapiens, UniProt P24941)", "experiment": "Inhibition of full length human recombinant CDK2/Cyclin A using histone H1 as substrate incubated for 40 mins in presence of [gamma-33ATP] by radiometric scintillation counting analysis", "format": "protein-complex assay"}, "HepG2 [1]": {"tested_on": "HepG2", "experiment": "Induction of cell cycle arrest in human HepG2 cells assessed as accumulation at G0/G1 phase at 2 uM incubated for 24 hrs by propidium iodide staining based flow cytometry (reference value: 38.34%)", "format": "functional"}, "[2]": {"biological_target": "T1, Mitogen-activated protein kinase kinase kinase 7 (Homo sapiens, UniProt O43318)", "T1 sequence (O43318 whole entry)": "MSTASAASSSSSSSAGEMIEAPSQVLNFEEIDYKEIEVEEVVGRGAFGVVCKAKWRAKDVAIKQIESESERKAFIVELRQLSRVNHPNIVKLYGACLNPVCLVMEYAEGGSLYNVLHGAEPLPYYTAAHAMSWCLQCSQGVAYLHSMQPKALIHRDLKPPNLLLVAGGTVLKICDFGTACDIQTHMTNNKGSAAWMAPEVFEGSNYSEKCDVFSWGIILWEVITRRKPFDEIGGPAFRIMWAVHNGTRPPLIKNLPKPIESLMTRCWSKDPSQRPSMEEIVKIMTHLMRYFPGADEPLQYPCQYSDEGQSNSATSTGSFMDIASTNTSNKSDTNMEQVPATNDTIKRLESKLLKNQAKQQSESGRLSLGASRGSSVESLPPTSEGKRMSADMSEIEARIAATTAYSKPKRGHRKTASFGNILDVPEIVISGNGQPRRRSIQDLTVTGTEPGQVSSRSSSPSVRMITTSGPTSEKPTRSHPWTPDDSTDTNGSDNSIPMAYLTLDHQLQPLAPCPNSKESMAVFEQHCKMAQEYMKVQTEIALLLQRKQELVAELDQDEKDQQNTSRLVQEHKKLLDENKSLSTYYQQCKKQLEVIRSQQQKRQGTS", "experiment": "Inhibition of TAK1 (unknown origin)"}, "[3]": {"biological_target": "T2, Mitogen-activated protein kinase kinase kinase 6 (Homo sapiens, UniProt O95382)", "T2 sequence (O95382 whole entry)": "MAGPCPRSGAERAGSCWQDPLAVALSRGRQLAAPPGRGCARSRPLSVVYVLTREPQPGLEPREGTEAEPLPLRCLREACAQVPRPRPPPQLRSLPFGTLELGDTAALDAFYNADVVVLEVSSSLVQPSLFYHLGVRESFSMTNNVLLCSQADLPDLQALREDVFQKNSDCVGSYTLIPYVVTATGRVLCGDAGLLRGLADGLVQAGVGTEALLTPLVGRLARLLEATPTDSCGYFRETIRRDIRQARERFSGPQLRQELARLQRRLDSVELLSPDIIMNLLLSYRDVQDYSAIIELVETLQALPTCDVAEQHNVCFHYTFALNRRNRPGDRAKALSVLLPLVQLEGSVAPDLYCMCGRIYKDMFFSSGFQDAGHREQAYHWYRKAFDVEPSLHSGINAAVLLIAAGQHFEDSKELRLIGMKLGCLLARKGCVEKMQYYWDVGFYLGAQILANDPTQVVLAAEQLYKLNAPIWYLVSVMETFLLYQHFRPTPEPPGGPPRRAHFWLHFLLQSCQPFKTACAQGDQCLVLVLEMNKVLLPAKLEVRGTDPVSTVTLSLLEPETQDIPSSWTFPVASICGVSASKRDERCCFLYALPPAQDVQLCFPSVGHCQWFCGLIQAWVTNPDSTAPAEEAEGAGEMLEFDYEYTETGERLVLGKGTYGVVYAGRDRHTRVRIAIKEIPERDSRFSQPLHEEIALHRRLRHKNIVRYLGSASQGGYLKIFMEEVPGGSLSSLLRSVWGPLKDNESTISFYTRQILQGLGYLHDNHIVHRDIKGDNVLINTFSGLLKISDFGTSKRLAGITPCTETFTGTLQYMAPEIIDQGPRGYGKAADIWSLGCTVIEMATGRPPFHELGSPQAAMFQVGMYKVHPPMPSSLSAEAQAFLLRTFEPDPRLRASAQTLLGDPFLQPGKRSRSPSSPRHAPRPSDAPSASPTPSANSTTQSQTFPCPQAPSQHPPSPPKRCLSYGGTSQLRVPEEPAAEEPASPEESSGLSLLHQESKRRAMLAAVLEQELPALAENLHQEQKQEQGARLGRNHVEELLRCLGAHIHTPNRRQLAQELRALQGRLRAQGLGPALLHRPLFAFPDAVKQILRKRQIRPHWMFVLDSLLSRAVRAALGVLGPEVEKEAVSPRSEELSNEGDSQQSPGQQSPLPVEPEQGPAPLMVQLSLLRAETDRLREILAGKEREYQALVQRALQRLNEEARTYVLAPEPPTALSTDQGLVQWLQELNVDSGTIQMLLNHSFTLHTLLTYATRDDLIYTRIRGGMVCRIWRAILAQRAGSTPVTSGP", "experiment": "Inhibition of ASK2 (unknown origin)"}, "[4]": {"experiment": "Inhibition of human full length recombinant CDK9/cyclin T1 using KTFCGTPEYLAPE as substrate incubated for 40 mins in presence of [gamma-33ATP] by radiometric scintillation counting analysis"}, "HepG2 [5]": {"tested_on": "HepG2", "experiment": "Induction of cell cycle arrest in human HepG2 cells assessed as accumulation at G0/G1 phase at 1 uM incubated for 24 hrs by propidium iodide staining based flow cytometry (reference value: 38.34%)", "format": "functional"}}}
{"smiles": "C[C@H](CO)n1cnnc1-c1cccc(NC(=O)Nc2cc3ccccn3n2)n1", "values": [{"measurement": "IC50", "setting": "CDK3/Cyclin E", "result": 0.117, "unit": "µM"}, {"measurement": "IC50", "setting": "CDK2/Cyclin A2", "result": 0.352, "unit": "µM"}, {"measurement": "Activity", "setting": "HepG2 [1]", "result": 63.79, "unit": "%"}, {"measurement": "IC50", "setting": "[2]", "result": 4.98, "unit": "µM"}, {"measurement": "IC50", "setting": "[3]", "result": 5.29, "unit": "µM"}, {"measurement": "IC50", "setting": "[4]", "result": 0.0942, "unit": "µM"}, {"measurement": "Activity", "setting": "HepG2 [5]", "result": 60.13, "unit": "%"}]}
